From ChEMBL document CHEMBL1201862, “PubChem BioAssay data set” (2004)
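Cells were grown in 96-well plates and exposed to each compound for 48 hours at five concentrations; endpoints were interpolated linearly between bracketing concentrations, or set to the highest concentration if not reached. The concentration for 50% growth inhibition is given as GI50.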 Activity calls are given as the source filed them. No stated cut-off is given here; in the data, active = GI50 up to about 1.1 µM and inactive = higher.

Legend:
Test in all cases: inhibition of tumour cell growth, NCI panel, 48 h
786-0 = test system: 786-0
SF-268 = test system: SF-268
TK-10 = test system: TK-10
OVCAR-5 = test system: OVCAR-5
HCT-116 = test system: HCT-116
BT-549 = test system: BT-549
HCC 2998 = test system: HCC 2998
RPMI-8226 = test system: RPMI-8226
SN12C = test system: SN12C
A498 = test system: A498
ACHN = test system: ACHN
SK-OV-3 = test system: SK-OV-3
SK-MEL-28 = test system: SK-MEL-28
M14 = test system: M14
SK-MEL-5 = test system: SK-MEL-5
HOP-92 = test system: HOP-92
SF-539 = test system: SF-539
T47D = test system: T47D

| SMILES | GI50 (786-0) | GI50 (SF-268) | GI50 (TK-10) | GI50 (OVCAR-5) | GI50 (HCT-116) | GI50 (BT-549) | GI50 (HCC 2998) | GI50 (RPMI-8226) | GI50 (SN12C) | GI50 (A498) | GI50 (ACHN) | GI50 (SK-OV-3) | GI50 (SK-MEL-28) | GI50 (M14) | GI50 (SK-MEL-5) | GI50 (HOP-92) | GI50 (SF-539) | GI50 (T47D) |
| --- | --- | --- | --- | --- | --- | --- | --- | --- | --- | --- | --- | --- | --- | --- | --- | --- | --- | --- |
| C=CC(Br)(CBr)CCC1OC1(C)C (stereo unspecified) | 15.7 µM (inactive) | 16.7 µM (inactive) | 20.2 µM (inactive) | 18.9 µM (inactive) | 17 µM (inactive) | 16.6 µM (inactive) | 18.9 µM (inactive) | 20.4 µM (inactive) | 16.6 µM (inactive) | 21.7 µM (inactive) | 18.2 µM (inactive) | 24.7 µM (inactive) | 16.3 µM (inactive) | 13.9 µM (inactive) | 14.2 µM (inactive) | 14.4 µM (inactive) | 19.5 µM (inactive) |  |
| CON(C)C(=O)C1CCCO1 (stereo unspecified) | > 100 µM (inactive) | > 100 µM (inactive) | > 100 µM (inactive) | > 100 µM (inactive) | > 100 µM (inactive) |  |  | 68.7 µM (inactive) | > 100 µM (inactive) | > 100 µM (inactive) | > 100 µM (inactive) | > 100 µM (inactive) | > 100 µM (inactive) | > 100 µM (inactive) | 67 µM (inactive) | > 100 µM (inactive) | > 100 µM (inactive) | > 100 µM (inactive) |
| CC(=O)CC(=O)c1cc2c(=O)oc(C)cc2oc1=O | > 37.5 µM (inactive) | > 37.5 µM (inactive) | > 37.5 µM (inactive) | > 37.5 µM (inactive) | > 37.5 µM (inactive) | > 37.5 µM (inactive) | > 37.5 µM (inactive) | > 37.5 µM (inactive) | > 37.5 µM (inactive) |  | > 37.5 µM (inactive) | > 37.5 µM (inactive) | > 37.5 µM (inactive) | > 37.5 µM (inactive) | > 37.5 µM (inactive) |  | > 37.5 µM (inactive) |  |
| CC12c3c4cc(Br)cc3Oc3cc(Br)cc(c31)Oc1cc(Br)cc(c12)O4 | 19.8 µM (inactive) | 10.5 µM (inactive) | 41.1 µM (inactive) | 55.5 µM (inactive) | 17.7 µM (inactive) | 21.9 µM (inactive) | 81.5 µM (inactive) | 19.4 µM (inactive) | 31 µM (inactive) |  | 51.9 µM (inactive) | > 100 µM (inactive) | 30.5 µM (inactive) | 35.4 µM (inactive) | 27.6 µM (inactive) |  | 34.6 µM (inactive) | 28.1 µM (inactive) |
| CC1(C)CC(=O)C(=CNC(=S)c2ccccc2)C(=O)C1 | > 100 µM (inactive) | > 100 µM (inactive) | > 100 µM (inactive) | > 100 µM (inactive) | > 100 µM (inactive) | > 100 µM (inactive) | > 100 µM (inactive) |  | > 100 µM (inactive) |  | > 100 µM (inactive) | > 100 µM (inactive) | > 100 µM (inactive) | > 100 µM (inactive) | > 100 µM (inactive) | > 100 µM (inactive) | > 100 µM (inactive) |  |
| O=C(NCCCl)Nc1ccccc1 | > 100 µM (inactive) | > 100 µM (inactive) |  | > 100 µM (inactive) | > 100 µM (inactive) |  | > 100 µM (inactive) | > 100 µM (inactive) | > 100 µM (inactive) | > 100 µM (inactive) | > 100 µM (inactive) | > 100 µM (inactive) | > 100 µM (inactive) |  | > 100 µM (inactive) | > 100 µM (inactive) |  | > 100 µM (inactive) |
| N#C[BH2-][n+]1cn(C2CC(O)C(COP(=O)(O)OC3CC(n4c[n+]([BH2-]C#N)c5c(=O)[nH]c(N)nc54)OC3CO)O2)c2nc(N)[nH]c(=O)c21 (stereo unspecified) | > 100 µM (inactive) | > 100 µM (inactive) |  | > 100 µM (inactive) | > 100 µM (inactive) |  | > 100 µM (inactive) | > 100 µM (inactive) | > 100 µM (inactive) | > 100 µM (inactive) | > 100 µM (inactive) |  | > 100 µM (inactive) | > 100 µM (inactive) | > 100 µM (inactive) | > 100 µM (inactive) | > 100 µM (inactive) | > 100 µM (inactive) |
| CC(=O)OCC1OC(n2c(C)c(C(C)=O)c(-c3cccc4ccccc34)c(C#N)c2=S)C(OC(C)=O)C(OC(C)=O)C1OC(C)=O (stereo unspecified) | > 100 µM (inactive) | > 100 µM (inactive) | > 100 µM (inactive) | > 100 µM (inactive) | > 100 µM (inactive) |  | > 100 µM (inactive) |  | > 100 µM (inactive) | > 100 µM (inactive) | > 100 µM (inactive) | > 100 µM (inactive) | > 100 µM (inactive) | > 100 µM (inactive) | 28.7 µM (inactive) | 17.5 µM (inactive) | > 100 µM (inactive) | > 100 µM (inactive) |
| COc1cc(CNc2nc3cc(C(F)(F)F)ccc3nc2C)cc(OC)c1OC | > 10 µM (inactive) | 25.6 µM (inactive) | 15.7 µM (inactive) |  | 19.3 µM (inactive) |  | 18.3 µM (inactive) | 11.7 µM (inactive) | 14.7 µM (inactive) |  | 13.6 µM (inactive) |  | 20.4 µM (inactive) | 12.4 µM (inactive) | 19.7 µM (inactive) |  | 21.6 µM (inactive) | 17.9 µM (inactive) |
| COC(=NC(C)C)NC(C)C | > 100 µM (inactive) | > 100 µM (inactive) | > 100 µM (inactive) | > 100 µM (inactive) | > 100 µM (inactive) |  | > 100 µM (inactive) | > 100 µM (inactive) | > 100 µM (inactive) | > 100 µM (inactive) | > 100 µM (inactive) | > 100 µM (inactive) | > 100 µM (inactive) | > 100 µM (inactive) | > 100 µM (inactive) | > 100 µM (inactive) | > 100 µM (inactive) | > 100 µM (inactive) |
| O=c1ssc2ncccc12 | 16.9 µM (inactive) | 22.1 µM (inactive) | 35.5 µM (inactive) | 26 µM (inactive) | 15.2 µM (inactive) |  | 19.8 µM (inactive) | 12.9 µM (inactive) | 15.1 µM (inactive) | 59.3 µM (inactive) | 17.4 µM (inactive) | > 100 µM (inactive) | 24.8 µM (inactive) | 17.9 µM (inactive) | 13.2 µM (inactive) | > 100 µM (inactive) | 30.3 µM (inactive) | 46 µM (inactive) |
| COc1ccc(/C=C2\CCCc3ccccc3C2=O)cc1 | 0.0561 µM (active) | 0.249 µM (active) | 9.06 µM (inactive) | 0.605 µM (active) | 0.244 µM (active) | 0.143 µM (active) | 0.2 µM (active) | 0.411 µM (active) | 0.117 µM (active) | 0.104 µM (active) | 3.15 µM (inactive) | 0.119 µM (active) | 3.83 µM (inactive) | 0.0335 µM (active) | 0.102 µM (active) | 0.893 µM (active) | 0.287 µM (active) |  |
| c1ccc(C2=NCCc3cc4c(cc32)OCO4)cc1 | > 100 µM (inactive) | > 100 µM (inactive) | > 100 µM (inactive) | > 100 µM (inactive) |  |  | > 100 µM (inactive) |  | > 100 µM (inactive) | > 100 µM (inactive) |  | > 100 µM (inactive) | > 100 µM (inactive) | > 100 µM (inactive) | > 100 µM (inactive) |  | > 100 µM (inactive) | > 100 µM (inactive) |
